Data set [1] is described as follows: Chlorine dioxide retention in liquid treatment solution, curtain application method. The class given is physicochemical. Particulars: for Average ClO2 loss in ppm (±STDEV): location A minus location D; for Average ClO2 concentration in ppm (±STDEV): curtain, ambient 65-70 °F. An excerpt:
(§1) In this example, two methods for applying a liquid chlorine dioxide treatment solution were compared with a chlorine dioxide treatment solution having the same volume and initial chlorine dioxide concentration, and using a system with the same delivery rate. One method was a curtain delivery method and the other method was a low-pressure spray method.
(§2) For both the methods a 330-gallon tote was used as the source fluid reservoir. The tote was filled with about 75 gallons of fresh water and also contained submersible sump-pump that provided the fluid flow to the system. A 6.6 gallon per minute (GPM) rotameter was in line between the pump and the chlorine dioxide delivery system that delivered a concentrated solution of chlorine dioxide (˜1700 ppm) so as to make a liquid chlorine dioxide treatment solution containing an initial concentration (approximately 5 ppm) of chlorine dioxide. The delivery system sat over an aluminum sheet on a slight gradient, to provide a homogenous flow pathway of the treatment solution. The aluminum sheet allowed the treatment fluid to cascade back into the tote for recirculation. During experimentation, the rotameter was set to allow for approximately 4 GPM ([…]) of constant flow, achieved by slight pinching of a ball valve in line and downstream of the rotameter. The treatment solution was circulated through the system for a few minutes and if needed, additional concentrated solution was added to achieve the initial concentration (approximately 5 ppm chlorine dioxide) in the treatment solution before experimental runs commenced.
For the curtain application, a rain gutter was modified to serve as a trough for the fluid to fill into. The front wall of the trough was modified; it was slightly shorter and was rounded to achieve laminar or predominantly laminar flow of the fluid over the wall of the trough and down over the target belt (belt to be used for moving eggs or other products to be treated with the treatment solution). The trough also contained pieces of plastics filter media (a type of baffle) that converted the turbulent flow of the trough being filled to more homogenous, laminar flow allowing a sheer curtain or waterfall effect to be achieved consistently across the entire length of the trough, such that the curtain fell onto the target belt. […] The curtain was about 11″ in height and approximately 2-2.5 feet wide.
(§3) Each application method was tested in multiple runs in which the liquid chlorine dioxide treatment solution was maintained at a particular target temperature (approximately 120° F. (this is the high temperature curtain or spray as referred to in Table 3) or a temperature of 60-75° F. (this is the low temperature curtain or spray as referred to in Table 3)).
(§4) For the curtain application method, the fluid was sampled at four locations: (A) from the hose that delivered treatment solution into the trough, (B) where the fluid entered the trough (C) within the trough near the exit where fluid flowed out of the trough to form the curtain, (D) where the fluid of the curtain fell onto the belt. For the spray application, the fluid was sampled at three locations: (A) from the hose that delivered treatment solution into the sprayer nozzle, (B) from the fluid as it exited the sprayer nozzle, (C) where the fluid of the spray fell onto the belt.
(§5) Chlorine dioxide concentrations were determined using the Palintest ChlordioX Plus device in accordance with the manufacturer's instructions.

The nature of data set [2]: Chlorine dioxide retention in liquid treatment solution, low-pressure spray application method. The class given is physicochemical. The following applies: for Average ClO2 loss in ppm (±STDEV): location A minus location C; for Average ClO2 concentration in ppm (±STDEV): spray, ambient 65-70 °F.
From the text: as §1, §2
For the spray application, a series of nozzles were used to apply the treatment solution.
as §3, §4, §5

Regarding `[O][Cl+][O-]` [ClO2, chlorine dioxide], the “Average ClO2 loss in ppm (±STDEV)” value turned out to be 1.95 ± 0.58 ppm in data set [1] (Curtain with high temperature (approximately 120 °F)), 1.37 ± 0.27 ppm in data set [1] (Curtain with low temperature (60-75 °F)), 3.24 ± 0.67 ppm in data set [2] (Spray with high temperature (approximately 120 °F)) and 1.44 ± 0.38 ppm in data set [2] (Spray with low temperature (60-75 °F)). Besides, the “Average ClO2 concentration in ppm (±STDEV)” value (from here on “Average ClO2 concentration”) in data set [1] (treatment fluid 65-75 °F, location A (hose delivering treatment solution into trough)) is given as 4.88 ± 0.87 ppm; in data set [1] (treatment fluid 65-75 °F, location B (where fluid entered the trough)), 4.91 ± 0.83 ppm; in data set [1] (treatment fluid 65-75 °F, location C (within trough near the exit)) it was 4.39 ± 0.79 ppm; in data set [1] (treatment fluid 65-75 °F, location D (where curtain fell onto the belt)), 3.51 ± 0.68 ppm; in data set [1] (treatment fluid 110-120 °F, location A (hose delivering treatment solution into trough)) it was 5.28 ± 0.59 ppm; in data set [1] (treatment fluid 110-120 °F, location B (where fluid entered the trough)), 4.70 ± 0.28 ppm. For the same compound, the “Average ClO2 concentration” value in data set [1] (treatment fluid 110-120 °F, location C (within trough near the exit)) worked out at 4.51 ± 0.52 ppm; in data set [1] (treatment fluid 110-120 °F, location D (where curtain fell onto the belt)), 3.34 ± 0.58 ppm; in data set [2] (treatment fluid 60-70 °F, location A (hose delivering treatment solution into sprayer nozzle)) it was 4.86 ± 0.54 ppm; in data set [2] (treatment fluid 60-70 °F, location B (fluid as it exited the sprayer nozzle)), 4.34 ± 0.71 ppm; in data set [2] (treatment fluid 60-70 °F, location C (where spray fell onto the belt)) it was 3.43 ± 0.61 ppm; in data set [2] (treatment fluid 110-120 °F, location A (hose delivering treatment solution into sprayer nozzle)), 5.28 ± 0.58 ppm. In addition, the “Average ClO2 concentration” value in data set [2] (treatment fluid 110-120 °F, location B (fluid as it exited the sprayer nozzle)) is on record as 3.57 ± 0.53 ppm; in data set [2] (treatment fluid 110-120 °F, location C (where spray fell onto the belt)), 2.04 ± 0.45 ppm.
